Broadly, the inhibition is the share of the control response that was lost under treatment. The term IC50 denotes the point on the concentration scale where inhibition reaches its midpoint.

These results are taken from patent publication US20100069341A1, “TETRAHYDRO-PYRANOPYRAZOLE CANNABINOID MODULATORS” (priority 2005, published 2010).

The target in one experiment is T1, Cannabinoid CB2 Receptor (Homo sapiens, UniProt P34972).
T1 construct: expressed in transfected cells; semi-purified membrane pellet
T1 sequence (P34972 whole entry): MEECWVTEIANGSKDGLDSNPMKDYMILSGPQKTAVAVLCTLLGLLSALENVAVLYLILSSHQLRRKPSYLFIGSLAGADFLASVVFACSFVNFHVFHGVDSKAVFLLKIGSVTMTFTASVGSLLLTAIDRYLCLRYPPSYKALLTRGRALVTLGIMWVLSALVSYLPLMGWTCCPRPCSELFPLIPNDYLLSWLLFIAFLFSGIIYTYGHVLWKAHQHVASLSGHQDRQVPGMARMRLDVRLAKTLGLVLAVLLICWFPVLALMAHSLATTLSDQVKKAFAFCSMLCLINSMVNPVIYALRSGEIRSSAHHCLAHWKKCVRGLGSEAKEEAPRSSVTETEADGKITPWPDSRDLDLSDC
As to the kind of experiment: Binding assay, cannabinoid CB2 receptor ([3H]-CP-55,940 displacement, SK-N-MC cell membranes). As to conditions: test concentration of 0.2 μM, human CB2 in SK-N-MC membranes; for inhibition at 0.2 µM: read-out: Cannabinoid CB2 Receptor Binding, percent inhibition. Put shortly:
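Membranes from SK-N-MC cells stably expressing human CB2 were incubated 90 min at 30 °C with 0.2 nM [3H]-CP-55,940 in Tris buffer, pH 7.5, with BSA; 10 uM WIN 55,212 defined non-specific binding. Filter-bound counts gave IC50 by linear regression, or % inhibition at 0.2 μM.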

The target of another experiment is T2, Cannabinoid CB1 Receptor (Homo sapiens, UniProt P21554).
T2 construct: expressed in transfected cells; semi-purified membrane pellet
T2 sequence (P21554 whole entry): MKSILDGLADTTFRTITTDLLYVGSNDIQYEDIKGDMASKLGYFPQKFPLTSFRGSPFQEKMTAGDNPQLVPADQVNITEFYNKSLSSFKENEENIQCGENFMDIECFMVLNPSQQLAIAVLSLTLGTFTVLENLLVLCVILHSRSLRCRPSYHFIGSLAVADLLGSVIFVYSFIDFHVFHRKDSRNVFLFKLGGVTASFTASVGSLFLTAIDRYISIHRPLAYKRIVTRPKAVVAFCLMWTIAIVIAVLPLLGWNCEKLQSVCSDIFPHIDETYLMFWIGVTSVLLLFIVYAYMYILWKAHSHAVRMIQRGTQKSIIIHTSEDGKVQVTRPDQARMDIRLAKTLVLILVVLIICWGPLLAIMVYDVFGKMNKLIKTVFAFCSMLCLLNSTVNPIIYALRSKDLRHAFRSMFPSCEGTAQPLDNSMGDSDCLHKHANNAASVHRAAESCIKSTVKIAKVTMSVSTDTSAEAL
The experiment can be described thus: Binding assay, cannabinoid CB1 receptor ([3H]-CP-55,940 displacement, SK-N-MC cell membranes). The note with it: for inhibition at 0.2 µM: read-out: Cannabinoid CB1 Receptor Binding, percent inhibition.

Where [1] appears, read: test concentration of 0.2 μM, human CB1 in SK-N-MC membranes.

Read-outs that look alike come from different tables or passages of the source.

Consider `COC[C@H]1CCCN1NC(=O)c1nn(-c2ccc(Cl)cc2Cl)c2c1COC/C2=C\c1ccc(Cl)s1` [Cpd 74, (7Z)-7-(5-chloro-thiophen-2-ylmethylene)-1-(2,4-dichloro-phenyl)-1,4,6,7-tetrahydro-pyrano[4,3-c]pyrazole-3-carboxylic acid [(2R)-2-methoxymethyl-pyrrolidin-1-yl]-amide], for which the inhibition at 0.2 µM came to 12% on Cannabinoid CB2 Receptor and 65% on Cannabinoid CB1 Receptor (setting [1]).
As for `O=C(NN1CCCC1)c1nn(-c2ccc(Cl)cc2Cl)c2c1COC/C2=C\c1ccsc1` [Cpd 47, (7Z)-1-(2,4-dichloro-phenyl)-7-thiophen-3-ylmethylene-1,4,6,7-tetrahydro-pyrano[4,3-c]pyrazole-3-carboxylic acid pyrrolidin-1-ylamide], the inhibition at 0.2 µM at Cannabinoid CB2 Receptor came out at 9%; at Cannabinoid CB1 Receptor (setting [1]) it was 70%. The half-maximal inhibitory concentration (IC50) on Cannabinoid CB1 Receptor was determined as 30 nM.
As for `O=C(NN1CC2CCCC2C1)c1nn(-c2ccc(Cl)cc2Cl)c2c1COC/C2=C\c1ccc(Cl)o1` (centres unmarked) [Cpd 71, (7Z)-7-(5-chloro-furan-2-ylmethylene)-1-(2,4-dichloro-phenyl)-1,4,6,7-tetrahydro-pyrano[4,3-c]pyrazole-3-carboxylic acid (hexahydro-cyclopenta[c]pyrrol-2-yl)-amide], the values for the inhibition at 0.2 µM at Cannabinoid CB2 Receptor and on Cannabinoid CB1 Receptor (setting [1]) were 17% and 71%, respectively. In addition, on Cannabinoid CB1 Receptor, the IC50 was 40 nM.
With `O=C(c1nn(-c2ccc(Cl)cc2Cl)c2c1COC/C2=C\c1ccc(F)cc1)N1CCCCC1` [Cpd 8, (7Z)-[1-(2,4-dichloro-phenyl)-7-(4-fluoro-benzylidene)-1,4,6,7-tetrahydro-pyrano[4,3-c]pyrazol-3-yl]-piperidin-1-yl-methanone], the inhibition at 0.2 µM on Cannabinoid CB2 Receptor turned out to be 7%; at Cannabinoid CB1 Receptor (setting [1]) it was 45%.
For `CC1CCCC(C)N1NC(=O)c1nn(-c2ccc(Cl)cc2Cl)c2c1COC/C2=C\c1ccc(Cl)s1` (centres unmarked) [Cpd 55, (7Z)-7-(5-chloro-thiophen-2-ylmethylene)-1-(2,4-dichloro-phenyl)-1,4,6,7-tetrahydro-pyrano[4,3-c]pyrazole-3-carboxylic acid (2,6-dimethyl-piperidin-1-yl)-amide], the inhibition at 0.2 µM at Cannabinoid CB2 Receptor stood at 11%; at Cannabinoid CB1 Receptor (setting [1]) it was 65%.
As for `O=C(NN1CCCCC1)c1nn(-c2ccc(Cl)cc2Cl)c2c1COC/C2=C\c1ccc(F)cc1` [Cpd 7, (7Z)-1-(2,4-dichloro-phenyl)-7-(4-fluoro-benzylidene)-1,4,6,7-tetrahydro-pyrano[4,3-c]pyrazole-3-carboxylic acid piperidin-1-ylamide], the inhibition at 0.2 µM worked out at 8% at Cannabinoid CB2 Receptor and 79% at Cannabinoid CB1 Receptor (setting [1]). The molecule further returned a half-inhibitory concentration (IC50) on Cannabinoid CB1 Receptor of 40 nM.
In the case of `O=C(NN1CC2CCCC2C1)c1nn(-c2ccc(Cl)cc2Cl)c2c1COC/C2=C\c1cccs1` (centres unmarked) [Cpd 38, (7Z)-1-(2,4-dichloro-phenyl)-7-thiophen-2-ylmethylene-1,4,6,7-tetrahydro-pyrano[4,3-c]pyrazole-3-carboxylic acid (hexahydro-cyclopenta[c]pyrrol-2-yl)-amide], the inhibition at 0.2 µM amounted to 16% on Cannabinoid CB2 Receptor and 79% on Cannabinoid CB1 Receptor (setting [1]). The same molecule showed an IC50 on Cannabinoid CB1 Receptor of 30 nM.
On the same counts, the results for `C[C@@H](NC(=O)c1nn(-c2ccc(Cl)cc2Cl)c2c1COC/C2=C\c1ccc(F)cc1)c1ccccc1` [Cpd 2, (7 Z)-1-(2,4-dichloro-phenyl)-7-(4-fluoro-benzylidene)-1,4,6,7-tetrahydro-pyrano[4,3-c]pyrazole-3-carboxylic acid [(1R)-1-phenyl-ethyl]-amide] are 23%, 87% and 13 nM.
For the molecule “(7Z)-azepan-1-yl-[1-(2,4-dichloro-phenyl)-7-(4-fluoro-benzylidene)-1,4,6,7-tetrahydro-pyrano[4,3-c]pyrazol-3-yl]-methanone [Cpd 28]”, on Cannabinoid CB2 Receptor, the “Cannabinoid CB2 Receptor Binding, percent inhibition” value was determined as 10%. The concentration for half-maximal inhibition (IC50) on Cannabinoid CB1 Receptor (human CB1 in SK-N-MC membranes, radioligand CP-55,940 0.2 nM, calculated by linear regression, read-out: Cannabinoid CB1 Receptor Binding, IC50 binding value) is 9 nM. On Cannabinoid CB1 Receptor (setting [1]), the “Cannabinoid CB1 Receptor Binding, percent inhibition” value came to 88%.
Consider `O=C(c1nn(-c2ccc(Cl)cc2Cl)c2c1COC/C2=C\c1ccc(F)cc1)N1CCC[C@H]1CO` [Cpd 21, (7Z)-[1-(2,4-dichloro-phenyl)-7-(4-fluoro-benzylidene)-1,4,6,7-tetrahydro-pyrano[4,3-c]pyrazol-3-yl]-[(2S)-2-hydroxymethyl-pyrrolidin-1-yl]-methanone], for which the values for the inhibition at 0.2 µM on Cannabinoid CB2 Receptor and on Cannabinoid CB1 Receptor (setting [1]) were 15% and 59%, respectively.
